Reference: patent US20070053975A1, “Ramipril formulation” (Selamine Limited, priority 2005, published 2007)

Legend:
[1] = Stability of Ramipril on exposure to stomach juices / acid pH; type: physicochemical
[2] = oral administration, fasted state; cited from earlier work
[3] = cited from earlier work

| Compound | Stability on exposure to stomach juices (acid pH) [1] | Time to peak plasma concentrations [2] | Absorption in the presence of food [3] |
| --- | --- | --- | --- |
| CCOC(=O)[C@H](CCc1ccccc1)N[C@@H](C)C(=O)N1[C@H](C(=O)O)C[C@@H]2CCC[C@@H]21 [Ramipril, (2S,3aS,6aS)-1[(S)-N-[(S)-1-carboxy-3-phenylpropyl]alanyl]octahydrocyclopenta[b]pyrrole-2-carboxylic acid, 1-ethyl ester] | breaks down | one |  |
| CC(=O)Oc1ccccc1C(=O)O [aspirin] |  |  | delayed |
